From PMC6021681, “Characterization of the Anti-Hepatitis C Virus Activity of New Nonpeptidic Small-Molecule Cyclophilin Inhibitors with the Potential for Broad Anti-Flaviviridae Activity” (Antimicrobial Agents and Chemotherapy, 2018)
Read-outs that look alike come from different tables or passages of the source.

How the values were obtained:
genotype 1a HCV-SGR = assay: microbe, parasite or virus in culture; assay type: cell-based, hepatitis C virus; conditions: stable Huh7.5 cells, 48 h, luciferase, read-out: Mean EC50 ± SD, HCV-SGR Genotype 1a
genotype 1b HCV-SGR = assay: microbe, parasite or virus in culture; assay type: cell-based, hepatitis C virus
Experimental: (§1) Candidate resistance-associated substitutions (RASs) were introduced into a wild-type genotype 1b HCV-SGR containing the luciferase reporter gene by means of site-directed mutagenesis (QuikChange II XL site-directed mutagenesis kit; Agilent Technologies, Santa Clara, CA, USA). Ninety-six hours after RNA transfection, the susceptibility of the RAS-containing HCV-SGR to compound 31 was determined by measurement of luciferase activity and comparison to wild-type HCV-SGR susceptibility. The replication capacity of the RAS-containing HCV-SGR was assessed by comparing luciferase activities at 4 h and 96 h posttransfection and expressed as a percentage of the wild-type replication capacity.

genotype 3a HCV-SGR = assay: genotype 3a HCV-SGR, stable Huh7.5 cells, luciferase; assay type: cell-based, hepatitis C virus; conditions: 48 h, read-out: Mean EC50 ± SD, HCV-SGR Genotype 3a
genotype 5a HCV-SGR = assay: genotype 5a HCV-SGR, stable Huh7.5 cells, luciferase; assay type: cell-based, hepatitis C virus; conditions: 48 h, read-out: Mean EC50 ± SD, HCV-SGR Genotype 5a
[1] = molecular target: Infectious J6/JFH1 HCV genotype 2a/2a; assay: infectious HCV model, luciferase; assay type: cell-based, hepatitis C virus; conditions: read-out: Mean EC50 ± SD, Infectious J6/JFH1 HCV genotype 2a/2a
[2] = test system: full-length infectious HCV genotype 3a (DBN-3acc); assay: full-length DBN-3acc replication, RT-qPCR; assay type: cell-based, hepatitis C virus; conditions: at 10 μM, Huh7.5 cells, 120 hours
Description: Madison, Wisconsin, USA).
(Promega) and quantified by RT‐qPCR.
(1 mi n ). […] The percent inhibition of […]

Huh7.5 cells = assay: cytotoxicity MTT assay; assay type: cell-based, Human; conditions: at its effective concentration, 3 days
CypA = molecular target: T1, CypA (Homo sapiens, UniProt P62937); assay: TR-FRET competitive binding assay against labeled CsA
T1 construct: purchased Selcia, Ongar, UK

CypA-NS5A interaction = CypA-NS5A interaction (Homo sapiens, UniProt P62937); assay type: binding
[3] = molecular target: CypA-NS5A-D320E interaction (Homo sapiens, UniProt P62937); assay type: binding; conditions: NS5A-D320E-Rluc, CypA-6His on Ni-NTA beads
[4] = test system: genotype 1b HCV-SGR D320E; assay: microbe, parasite or virus in culture; assay type: cell-based, hepatitis C virus; conditions: for EC50: 96 h, read-out: Mean EC50 ± SD, D320E
Experimental: as §1, with “Ninety-six hours after RNA transfection, the susceptibility of the RAS-containing HCV-SGR to compound 31 was determined by measurement of luciferase activity and comparison to wild-type HCV-SGR susceptibility.” left out

[5] = test system: genotype 1b HCV-SGR E442G; assay: microbe, parasite or virus in culture; assay type: cell-based, hepatitis C virus; conditions: for EC50: 96 h, read-out: Mean EC50 ± SD, E442G
Experimental: as §1, with “Ninety-six hours after RNA transfection, the susceptibility of the RAS-containing HCV-SGR to compound 31 was determined by measurement of luciferase activity and comparison to wild-type HCV-SGR susceptibility.” left out

[6] = test system: genotype 1b HCV-SGR I133V; assay: microbe, parasite or virus in culture; assay type: cell-based, hepatitis C virus; conditions: for EC50: 96 h, read-out: Mean EC50 ± SD, I133V
Experimental: as §1, with “Ninety-six hours after RNA transfection, the susceptibility of the RAS-containing HCV-SGR to compound 31 was determined by measurement of luciferase activity and comparison to wild-type HCV-SGR susceptibility.” left out

[7] = test system: genotype 1b HCV-SGR K308I; assay: microbe, parasite or virus in culture; assay type: cell-based, hepatitis C virus; conditions: for EC50: 96 h, read-out: Mean EC50 ± SD, K308I
Experimental: as §1, with “Ninety-six hours after RNA transfection, the susceptibility of the RAS-containing HCV-SGR to compound 31 was determined by measurement of luciferase activity and comparison to wild-type HCV-SGR susceptibility.” left out

[8] = test system: genotype 1b HCV-SGR L303P; assay: microbe, parasite or virus in culture; assay type: cell-based, hepatitis C virus; conditions: for EC50: 96 h, read-out: Mean EC50 ± SD, L303P
Experimental: as §1, with “Ninety-six hours after RNA transfection, the susceptibility of the RAS-containing HCV-SGR to compound 31 was determined by measurement of luciferase activity and comparison to wild-type HCV-SGR susceptibility.” left out

[9] = test system: genotype 1b HCV-SGR R304W; assay: microbe, parasite or virus in culture; assay type: cell-based, hepatitis C virus; conditions: for EC50: 96 h, read-out: Mean EC50 ± SD, R304W
Experimental: as §1, with “Ninety-six hours after RNA transfection, the susceptibility of the RAS-containing HCV-SGR to compound 31 was determined by measurement of luciferase activity and comparison to wild-type HCV-SGR susceptibility.” left out

[10] = test system: genotype 1b HCV-SGR Y321H; assay: microbe, parasite or virus in culture; assay type: cell-based, hepatitis C virus; conditions: for EC50: 96 h, read-out: Mean EC50 ± SD, Y321H
Experimental: as §1, with “Ninety-six hours after RNA transfection, the susceptibility of the RAS-containing HCV-SGR to compound 31 was determined by measurement of luciferase activity and comparison to wild-type HCV-SGR susceptibility.” left out

[11] = test system: DENV-4 strain Dominica 814669; assay: DENV replication in Huh7 cells, RT-qPCR; assay type: cell-based, dengue virus; conditions: RT-qPCR at 48 h postinfection
YFV strain Dakar HD 1279 = assay type: cell-based, yellow fever virus; conditions: Huh7 cells, RT-qPCR at 48 h postinfection; read-out: EC50, YFV replication
ZIKV strain MR766 = assay: ZIKV replication in Huh7 cells, RT-qPCR; assay type: cell-based, Zika virus
WNV = WNV replication; assay type: cell-based, West Nile virus; conditions: 50 μM the highest concentration tested, data not shown
JEV = JEV replication; assay type: cell-based, Japanese encephalitis virus; conditions: data not shown
[12] = test system: HCV genotype 1b bicistronic replicon (I389-Neo/NS3-3'/5.1); assay: genotype 1b HCV-SGR replicon model, stable Huh7.5 cells, RT-qPCR; assay type: cell-based, hepatitis C virus; conditions: 3 days
Experimental: of at least two independent measurements.
The cells were treated for
without G418. […] HCV‐SGR RNA
results were normalized to GAPDH.
replicates in cell culture.
antiviral activities. Nat Commun 7:12777.

Huh7 cells = conditions: read-out: 50% cytotoxic concentration (CC50); flavivirus experiments
genotype 2a HCV-SGR = assay: genotype 2a HCV-SGR, transient, luciferase; conditions: read-out: Mean EC50 ± SD, HCV-SGR Genotype 2a
CypA PPIase activity = CypA PPIase activity (Homo sapiens, UniProt P62937); assay: CypA PPIase enzyme assay, chymotrypsin coupled; conditions: read-out: PPIase inhibition IC50, 20°C
[13] = molecular target: chimeric genotype 2a/4a HCV-SGR; assay: chimeric genotype 2a/4a HCV-SGR, transient, luciferase; conditions: read-out: Mean EC50 ± SD, HCV-SGR Genotype 2a/4a
[14] = test system: genotype 1b HCV-SGR(L31V/Y93H); assay: microbe, parasite or virus in culture; assay type: cell-based, hepatitis C virus; conditions: Hepatitis C virus, 84 h, read-out: Mean EC50 ± SD, L31V/Y93H

Sequence of CypA PPIase activity (P62937 whole entry): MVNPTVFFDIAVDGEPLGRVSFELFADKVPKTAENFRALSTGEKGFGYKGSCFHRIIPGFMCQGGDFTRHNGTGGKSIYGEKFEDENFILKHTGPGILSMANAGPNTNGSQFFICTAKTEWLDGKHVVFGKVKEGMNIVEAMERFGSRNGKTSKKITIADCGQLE
T1 sequence (P62937 whole entry): as above
Sequence of CypA-NS5A interaction (P62937 whole entry): as above
Sequence of CypA-NS5A-D320E interaction (P62937 whole entry, stated change not applied): as the sequence (P62937 whole entry) above

CSc1ccccc1C1CCCN1C(=O)C(NC(=O)NCc1ccc(N)cc1)c1ccccc1 (stereo not shown) [Compound C31]
EC50 (genotype 1a HCV-SGR): 3800 ± 1900 nM | Fold change, WT (genotype 1b HCV-SGR; EC50 relative to wild type): 1.0 | EC50 (genotype 1b HCV-SGR; transient, Huh7.5 cells, 96 h posttransfection, luciferase, read-out: Mean EC50 ± SD, HCV-SGR Genotype 1b): 2950 ± 600 nM | EC50 (genotype 1b HCV-SGR; wild-type genotype 1b HCV-SGR, read-out: Mean EC50 ± SD, WT): 2950 ± 600 nM | EC50 (genotype 3a HCV-SGR): 7760 ± 1570 nM | EC50 (genotype 5a HCV-SGR): 1200 ± 830 nM | EC50 ([1]; Huh7.5 cells, 72 h, luciferase): 2800 ± 400 nM | maximal HCV RNA reduction, DBN-3acc RNA replication [2]: 244 fold | cell viability (Huh7.5 cells): did not affect | Kd (CypA; read-out: Kd, displacement of labeled CsA from CypA, purified CypA): 105 nM | disruption of the CypA-NS5A interaction (CypA-NS5A interaction; WT-NS5A-Rluc, CypA-6His on Ni-NTA beads): disrupted | disruption of the NS5A-D320E interaction with CypA [3]: fully sensitive | Fold change, D320E ([4]; EC50 relative to wild type): 3.0 | EC50 ([4]; genotype 1b HCV-SGR): 8730 ± 1100 nM | Fold change, E442G ([5]; EC50 relative to wild type): 1.0 | EC50 ([5]; genotype 1b HCV-SGR): 2990 ± 700 nM | Fold change, I133V ([6]; EC50 relative to wild type): 0.9 | EC50 ([6]; genotype 1b HCV-SGR): 2750 ± 200 nM | Fold change, K308I ([7]; EC50 relative to wild type): 0.9 | EC50 ([7]; genotype 1b HCV-SGR): 2590 ± 200 nM | Fold change, L303P ([8]; EC50 relative to wild type): 1.0 | EC50 ([8]; genotype 1b HCV-SGR): 3050 ± 400 nM | Fold change, R304W ([9]; EC50 relative to wild type): 0.8 | EC50 ([9]; genotype 1b HCV-SGR): 2470 ± 200 nM | Fold change, Y321H ([10]; EC50 relative to wild type): 1.8 | EC50 ([10]; genotype 1b HCV-SGR): 5410 ± 400 nM | EC50 [11]: 7300 ± 3500 nM | EC50 (YFV strain Dakar HD 1279): 27200 ± 4700 nM | EC50 (ZIKV strain MR766; Huh7 cells, RT-qPCR at 48 h postinfection): 48000 ± 5600 nM | EC50 (WNV): > 50000 nM | effect against JEV replication (JEV): no effect | EC50 [12]: 400 ± 10 nM | CC50 (Huh7 cells): ≥ 100000 nM | EC50 (genotype 2a HCV-SGR; transient, Huh7.5 cells, 48 h posttransfection, luciferase): 2300 ± 1200 nM | IC50 (CypA PPIase activity): 100 ± 10 nM | EC50 ([13]; transient, Huh7.5 cells, 72 h posttransfection, luciferase): 1400 ± 1100 nM

CSCCC(NC(=O)NCc1ccc(N)cc1)C(=O)N1CCCC1c1ccccc1SC (stereo not shown) [Compound C34]
EC50 [12]: 1630 ± 380 nM

C/C=C/C[C@@H](C)[C@@H](O)[C@H]1C(=O)N[C@@H](CC)C(=O)N(C)[C@H](C)C(=O)N(CC)[C@@H](C(C)C)C(=O)N[C@@H](C(C)C)C(=O)N(C)[C@@H](CC(C)C)C(=O)N[C@@H](C)C(=O)N[C@H](C)C(=O)N(C)[C@@H](CC(C)C)C(=O)N(C)[C@@H](CC(C)C)C(=O)N(C)[C@@H](C(C)C)C(=O)N1C [ALV, Alisporivir, reference compound]
EC50 (genotype 1a HCV-SGR; Hepatitis C virus): 40 ± 30 nM | EC50 (genotype 1b HCV-SGR; Hepatitis C virus, transient, Huh7.5 cells, 96 h posttransfection, luciferase, read-out: Mean EC50 ± SD, HCV-SGR Genotype 1b): 30 ± 10 nM | EC50 (genotype 1b HCV-SGR; Hepatitis C virus, wild-type genotype 1b HCV-SGR, read-out: Mean EC50 ± SD, WT): 30 ± 10 nM | EC50 (genotype 3a HCV-SGR; Hepatitis C virus): 20 ± 10 nM | EC50 (genotype 5a HCV-SGR; Hepatitis C virus): 10 ± 10 nM | EC50 ([1]; Hepatitis C virus, Huh7.5, 72 h): 30 ± 2 nM | Kd (CypA; purified CypA): < 5 nM | disruption of the CypA-NS5A interaction (CypA-NS5A interaction): disrupted | EC50 ([4]; Hepatitis C virus): 120 ± 50 nM | EC50 ([5]; Hepatitis C virus): 30 ± 4 nM | EC50 ([6]; Hepatitis C virus): 20 ± 1 nM | EC50 ([7]; Hepatitis C virus): 40 ± 4 nM | EC50 ([8]; Hepatitis C virus): 40 ± 10 nM | EC50 ([9]; Hepatitis C virus): 30 ± 4 nM | EC50 ([10]; Hepatitis C virus): 60 ± 20 nM | EC50 [14]: 10 ± 1 nM | inhibition of ZIKV replication (ZIKV strain MR766; data not shown): did not inhibit | EC50 (genotype 2a HCV-SGR; Hepatitis C virus, GETYPE2A, Huh7.5, 48 h): 20 ± 10 nM | EC50 ([13]; Hepatitis C virus, GETYPE2A, Huh7.5, 72 h): 10 ± 2 nM

CSc1ccccc1C1CCCN1C(=O)C(C)NC(=O)NCc1ccc(N)cc1 (stereo not shown) [Compound C33, 1‐[(4‐aminophenyl)methyl]‐3‐(1‐{2‐[2‐(methylsylfanyl)phenyl]pyrrolidin‐1‐yl}‐1‐oxopropan‐2‐yl)urea]
EC50 [12]: 12900 ± 1200 nM | IC50 (CypA PPIase activity): 3080 ± 1170 nM
